Laboratory results taken from US20090012085A1, “DOSAGE FORMS AND METHODS OF TREATMENT USING A TYROSINE KINASE INHIBITOR” (priority 2005, published 2009).
Where two headings read alike, the source gives them in different places.

Assay: Phase I dose-escalating study, plasma pharmacokinetics in patients with solid tumor
Format: in vivo, human
Conditions: for concentration at 6 h / concentration at 8 h / concentration at 10 h / concentration at 0 h / concentration at 1 h / concentration at 2 h / concentration at 3 h / concentration at 4 h / concentration at 20 h / concentration at 24 h / concentration at 48 h / concentration at 72 h / concentration at 96 h / concentration at 144 h / AUC(0-t) / Cmax / Tmax / half-life: human, plasma; for concentration at 6 h: nominal time 6 h; for concentration at 8 h: nominal time 8 h; for concentration at 10 h: nominal time 10 h; for concentration at 0 h: nominal time 0 h; for concentration at 1 h: nominal time 1 h; for concentration at 2 h: nominal time 2 h; for concentration at 3 h: nominal time 3 h; for concentration at 4 h: nominal time 4 h; for concentration at 20 h: nominal time 20 h; for concentration at 48 h: nominal time 48 h; for concentration at 72 h: nominal time 72 h; for concentration at 96 h: nominal time 96 h; for concentration at 144 h: nominal time 144 h; for AUC(0-t): read-out: AUC(0-24), mean (% CV); for Cmax: read-out: Cmax, mean (% CV); for Tmax: read-out: tmax, mean (% CV); for half-life: read-out: t½, mean (% CV) (converted)
Protocol: Cmax values, or maximum total plasma concentrations, of a compound of formula 1 can be measured according to techniques well known to those skilled in the art. For example, after a compound of formula 1 has been administered to a mammal, blood samples can be taken at fixed time points over a period of time (e.g. 24 hours) and the serum or plasma concentration of compound of formula 1 can be measured using standard analytical techniques known in the art. In vivo determinations Cmax can then be made by plotting the serum or plasma concentration of compound of formula 1 along the ordinate (y-axis) against time along the abscissa (x-axis).
The maleate salt of compound 1 was administered to human patients with solid tumor malignancies not amenable to conventional therapies in a Phase I dose-escalating multicenter study. The types of tumor malignancies included colorectal carcinoma, renal cell carcinoma, esophageal carcinoma, thymus carcinoma, mastocytosis, lung cancer and multiple endocrine neoplasia type II. Patients were treated in cohorts of 6 with escalating QD (once per day) doses of the maleate salt of compound 1 under fasting conditions. Each study cycle of 5 weeks consisted of 4 weeks of treatment followed by 1 week of rest (4/1 schedule), or continuous dosing without any rest period.
Full pharmacokinetic profiles were collected on Cycle 1 Day 1 (C1D1), Cycle 1 Day 28 (C1D28), and Cycle 2 Day 28 (C2D28). Preliminary pharmacokinetic parameters for the first 44 patients, i.e. the first 7 dosing groups, were estimated using nominal collection times and quality-controlled, non-quality assured bioanalytical data. The dosage amounts in Table 1A and Table 1B are free base equivalent amounts.

[1] = 25 mg QD, 25 mg QD 4/1 (n = 6), read-out: Mean plasma concentration following the last dose on cycle 1 day 28
[2] = 25 mg, 25 mg QD 4/1 (n = 6), read-out: Mean plasma concentration following the last dose on cycle 1 day 28
[3] = 25 mg, 25 mg QD (4/1), C1D1 (n = 6)
[4] = 25 mg, 25 mg QD (4/1), C1D28 (n = 6)
[5] = 25 mg, 25 mg QD (4/1), C2D28 (n = 5)
[6] = 50 mg QD, 50 mg QD 4/1 (n = 5), read-out: Mean plasma concentration following the last dose on cycle 1 day 28
[7] = 50 mg, 50 mg QD 4/1 (n = 5), read-out: Mean plasma concentration following the last dose on cycle 1 day 28
[8] = 50 mg, 50 mg QD (4/1), C1D1 (n = 6)
[9] = 50 mg, 50 mg QD (4/1), C1D28 (n = 5)
[10] = 50 mg, 50 mg QD (4/1), C2D28 (n = 3)
[11] = 100 mg QD, 100 mg QD 4/1 (n = 6), read-out: Mean plasma concentration following the last dose on cycle 1 day 28
[12] = 100 mg QD, 100 mg QD Continuous (n = 4), read-out: Mean plasma concentration following the last dose on cycle 1 day 28
[13] = 100 mg, 100 mg QD 4/1 (n = 6), read-out: Mean plasma concentration following the last dose on cycle 1 day 28
[14] = 100 mg, 100 mg QD (4/1), C1D1 (n = 7)
[15] = 100 mg, 100 mg QD (4/1), C1D28 (n = 6)
[16] = 100 mg, 100 mg QD (4/1), C2D28 (n = 4)
[17] = 100 mg, 100 mg QD (continuous), C1D1 (n = 6)
[18] = 100 mg, 100 mg QD (continuous), C1D28 (n = 6)
[19] = 100 mg, 100 mg QD (continuous), C2D28 (n = 4)
[20] = 100 mg, 100 mg QD Continuous (n = 4), read-out: Mean plasma concentration following the last dose on cycle 1 day 28

drug accumulation in plasma from cycle 1 to cycle 2 (100 mg QD continuous, Cmax and AUC0-24 of C1D28 vs C2D28): no drug accumulation
time of the longer elimination phase after dosing (4/1 schedule, after the last dose on Day 28): about 72 hours
change in the overall plasma elimination profile (across the 25- to 250-mg groups): no change
time of absorption after dosing (administered in the fasted state): ≤ 6 h
dose linearity of pharmacokinetics (first 44 patients, 25 to 250 mg): generally dose-linear pharmacokinetics
concentration at 6 h [1]: 50.3 ng/mL
concentration at 8 h [1]: 41.3 ng/mL
concentration at 10 h [1]: 36.8 ng/mL
concentration at 0 h [2]: 22.2 ng/mL
concentration at 1 h [2]: 50.1 ng/mL
concentration at 2 h [2]: 46.7 ng/mL
concentration at 3 h [2]: 47 ng/mL
concentration at 4 h [2]: 58.3 ng/mL
concentration at 20 h [2]: 19.5 ng/mL
concentration at 24 h (25 mg, 25 mg QD 4/1 (n = 6), nominal time 24 h, read-out: Mean plasma concentration following the last dose on cycle 1 day 28): 21.1 ng/mL
concentration at 48 h [2]: 6.24 ng/mL
concentration at 72 h [2]: 2.61 ng/mL
concentration at 96 h [2]: 1.58 ng/mL
concentration at 144 h [2]: 0.63 ng/mL
AUC(0-t) [3]: 547 ng·h/mL
concentration at 24 h (25 mg, 25 mg QD (4/1), C1D1 (n = 6), read-out: C(trough, 24 h), mean (% CV)): 13.8 ng/mL
Cmax [3]: 55.1 ng/mL
Tmax [3]: 2.8 h
half-life [3]: 11.9 h
AUC(0-t) [4]: 809 ng·h/mL
concentration at 24 h (25 mg, 25 mg QD (4/1), C1D28 (n = 6), read-out: C(trough, 24 h), mean (% CV)): 21.1 ng/mL
Cmax [4]: 72.9 ng/mL
Tmax [4]: 2.7 h
half-life [4]: 24.8 h
Cmax [5]: 61.8 ng/mL
Tmax [5]: 3.2 h
half-life [5]: 17.7 h
concentration at 3 h [6]: 85.6 ng/mL
concentration at 6 h [6]: 71.3 ng/mL
concentration at 8 h [6]: 68.6 ng/mL
concentration at 10 h [6]: 59.4 ng/mL
concentration at 0 h [7]: 37.2 ng/mL
concentration at 1 h [7]: 72.3 ng/mL
concentration at 2 h [7]: 84.5 ng/mL
concentration at 4 h [7]: 81.1 ng/mL
concentration at 20 h [7]: 30.5 ng/mL
concentration at 24 h (50 mg, 50 mg QD 4/1 (n = 5), nominal time 24 h, read-out: Mean plasma concentration following the last dose on cycle 1 day 28): 24.3 ng/mL
concentration at 48 h [7]: 25.4 ng/mL
concentration at 72 h [7]: 7.89 ng/mL
concentration at 96 h [7]: 17 ng/mL
concentration at 144 h [7]: 3.27 ng/mL
AUC(0-t) [8]: 888 ng·h/mL
concentration at 24 h (50 mg, 50 mg QD (4/1), C1D1 (n = 6), read-out: C(trough, 24 h), mean (% CV)): 20.8 ng/mL
Cmax [8]: 84.6 ng/mL
Tmax [8]: 2.8 h
half-life [8]: 10.8 h
AUC(0-t) [9]: 1350 ng·h/mL
concentration at 24 h (50 mg, 50 mg QD (4/1), C1D28 (n = 5), read-out: C(trough, 24 h), mean (% CV)): 50.8 ng/mL
Cmax [9]: 126 ng/mL
Tmax [9]: 6.6 h
half-life [9]: 24 h
AUC(0-t) [10]: 1790 ng·h/mL
concentration at 24 h (50 mg, 50 mg QD (4/1), C2D28 (n = 3), read-out: C(trough, 24 h), mean (% CV)): 44.2 ng/mL
Cmax [10]: 173 ng/mL
Tmax [10]: 3.3 h
half-life [10]: 18.9 h
concentration at 3 h [11]: 337 ng/mL
concentration at 4 h [11]: 344 ng/mL
concentration at 6 h [11]: 312 ng/mL
concentration at 8 h [11]: 261 ng/mL
concentration at 10 h [11]: 208 ng/mL
concentration at 3 h [12]: 460 ng/mL
concentration at 4 h [12]: 560 ng/mL
concentration at 6 h [12]: 707 ng/mL
concentration at 8 h [12]: 395 ng/mL
concentration at 10 h [12]: 566 ng/mL
concentration at 0 h [13]: 121 ng/mL
concentration at 1 h [13]: 218 ng/mL
concentration at 2 h [13]: 326 ng/mL
concentration at 20 h [13]: 311 ng/mL
concentration at 24 h (100 mg, 100 mg QD 4/1 (n = 6), nominal time 24 h, read-out: Mean plasma concentration following the last dose on cycle 1 day 28): 111 ng/mL
concentration at 48 h [13]: 60.8 ng/mL
concentration at 72 h [13]: 16.1 ng/mL
concentration at 96 h [13]: 9.96 ng/mL
concentration at 144 h [13]: 2.94 ng/mL
AUC(0-t) [14]: 2480 ng·h/mL
concentration at 24 h (100 mg, 100 mg QD (4/1), C1D1 (n = 7), read-out: C(trough, 24 h), mean (% CV)): 86.8 ng/mL
Cmax [14]: 270 ng/mL
Tmax [14]: 2.6 h
half-life [14]: 12.5 h
AUC(0-t) [15]: 6050 ng·h/mL
concentration at 24 h (100 mg, 100 mg QD (4/1), C1D28 (n = 6), read-out: C(trough, 24 h), mean (% CV)): 111 ng/mL
Cmax [15]: 413 ng/mL
Tmax [15]: 2.7 h
half-life [15]: 22 h
AUC(0-t) [16]: 2800 ng·h/mL
concentration at 24 h (100 mg, 100 mg QD (4/1), C2D28 (n = 4), read-out: C(trough, 24 h), mean (% CV)): 156 ng/mL
Cmax [16]: 181 ng/mL
Tmax [16]: 13.5 h
half-life [16]: 23 h
AUC(0-t) [17]: 1800 ng·h/mL
concentration at 24 h (100 mg, 100 mg QD (continuous), C1D1 (n = 6), read-out: C(trough, 24 h), mean (% CV)): 34.1 ng/mL
Cmax [17]: 171 ng/mL
Tmax [17]: 4.3 h
half-life [17]: 12.9 h
AUC(0-t) [18]: 2990 ng·h/mL
concentration at 24 h (100 mg, 100 mg QD (continuous), C1D28 (n = 6), read-out: C(trough, 24 h), mean (% CV)): 63 ng/mL
Cmax [18]: 255 ng/mL
Tmax [18]: 3.3 h
half-life [18]: 11.4 h
AUC(0-t) [19]: 3230 ng·h/mL
concentration at 24 h (100 mg, 100 mg QD (continuous), C2D28 (n = 4), read-out: C(trough, 24 h), mean (% CV)): 62.8 ng/mL
Cmax [19]: 250 ng/mL
Tmax [19]: 3.7 h
half-life [19]: 13.8 h
concentration at 0 h [20]: 284 ng/mL
concentration at 1 h [20]: 232 ng/mL
concentration at 2 h [20]: 524 ng/mL
concentration at 20 h [20]: 265 ng/mL
concentration at 24 h (100 mg, 100 mg QD Continuous (n = 4), nominal time 24 h, read-out: Mean plasma concentration following the last dose on cycle 1 day 28): 246 ng/mL
Structure (SMILES): Cc1[nH]c(/C=C2\C(=O)Nc3ccc(F)cc32)c(C)c1C(=O)NC[C@H](O)CN1CCOCC1 [compound 1, 5-[(Z)-(5-fluoro-2-oxo-1,2-dihydro-3H-indol-3-ylidene)methyl]-N-[(2S)-2-hydroxy-3-morpholin-4-ylpropyl]-2,4-dimethyl-1H-pyrrole-3-carboxamide]
